US7192906B2, “Substituted pyrazole derivatives, production process thereof, and herbicide compositions containing the derivatives” (SDS Biotech K.K., priority 2001, dated 2007)

How the values were obtained:
Type in all cases: in vivo
[1] = test system: Stellaria media; experiment: Test Example 1 upland field foliage treatment; conditions: Table 4, upland field foliage treatment, index 0-5
Procedure, shortened: (§1)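 Post-emergence foliar spray of water-diluted wettable powder at 1 kg active ingredient per hectare, applied 14 days after sowing in upland soil. Weed control or crop phytotoxicity rated 21 days later on a 0–5 scale (5: ≥90%, 0: <10%).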

[2] = test system: Setaria viridis; experiment: Test Example 1 upland field foliage treatment; conditions: Table 4, upland field foliage treatment, index 0-5
Procedure, shortened: as §1

[3] = test system: Chenopodium album; experiment: Test Example 1 upland field foliage treatment; conditions: Table 4, upland field foliage treatment, index 0-5
Procedure, shortened: as §1

[4] = test system: Digitaria adscendens; experiment: Test Example 1 upland field foliage treatment; conditions: Table 4, upland field foliage treatment, index 0-5
Procedure, shortened: as §1

[5] = test system: Rice (Oryza sativa); experiment: Test Example 3 paddy field treatment, crop phytotoxicity; conditions: active ingredient 1 kg per hectare, index 0-5; for Herbicidal activity OS (phytotoxicity to rice): paddy field treatment, transplanted rice Koshihikari, wettable powder, 21st day after the dropping
Procedure, shortened: (§2)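 Weed seeds sown in puddled paddy soil under 4 cm water, with two-leaf Koshihikari rice transplanted; 10 days later a wettable powder was applied to the water surface at 1 kg active ingredient/ha. Scored 21 days after application on a 0–5 scale (0 = <10%, 5 = ≥90% herbicidal effect or phytotoxicity).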

[6] = test system: Stellaria media; experiment: Test Example 2 upland soil treatment; conditions: Table 5, upland soil treatment, index 0-5
Procedure, shortened: (§3)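 Pre-emergence soil application the day after sowing, active ingredient at 1 kg per hectare as diluted wettable powder, seeds covered with about 1 cm soil. Assessed 21 days after application on a 0–5 scale (5 = ≥90% herbicidal effect or phytotoxicity; 0 = <10%).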

[7] = test system: Setaria viridis; experiment: Test Example 2 upland soil treatment; conditions: Table 5, upland soil treatment, index 0-5
Procedure, shortened: as §3

[8] = test system: Chenopodium album; experiment: Test Example 2 upland soil treatment; conditions: Table 5, upland soil treatment, index 0-5
Procedure, shortened: as §3

[9] = test system: Digitaria adscendens; experiment: Test Example 2 upland soil treatment; conditions: Table 5, upland soil treatment, index 0-5
Procedure, shortened: as §3

[10] = test system: soybean (Glycine max); experiment: Test Example 1 upland field foliage treatment, crop phytotoxicity; conditions: Table 4, upland field foliage treatment, index 0-5
Procedure, shortened: as §1

[11] = test system: wheat (Triticum aestivum); experiment: as above; conditions: Table 4, upland field foliage treatment, index 0-5
Procedure, shortened: as §1

[12] = test system: Monochoria vaginalis; experiment: Test Example 3 paddy field treatment; conditions: active ingredient 1 kg per hectare, index 0-5
Procedure, shortened: as §2

[13] = test system: Echinochloa crusgalli; experiment: Test Example 3 paddy field treatment; conditions: active ingredient 1 kg per hectare, index 0-5
Procedure, shortened: as §2

[14] = test system: Ammannia multiflora; experiment: Test Example 3 paddy field treatment; conditions: active ingredient 1 kg per hectare, index 0-5
Procedure, shortened: as §2

[15] = test system: Scirpus juncoides; experiment: Test Example 3 paddy field treatment; conditions: active ingredient 1 kg per hectare, index 0-5
Procedure, shortened: as §2

[16] = test system: soybean (Glycine max); experiment: Test Example 2 upland soil treatment, crop phytotoxicity; conditions: Table 5, upland soil treatment, index 0-5
Procedure, shortened: as §3

[17] = test system: wheat (Triticum aestivum); experiment: as above; conditions: Table 5, upland soil treatment, index 0-5
Procedure, shortened: as §3

[18] = paddy field treatment, wettable powder, 21st day after the dropping
[19] = Table 6, paddy field treatment, 21st day after dropping

Compound | Herbicidal activity SM: Stellaria media [1] | Herbicidal activity SV: Setaria viridis [2] | Herbicidal activity CA: Chenopodium album [3] | Herbicidal activity DA: Digitaria adscendens [4] | Herbicidal activity OS (phytotoxicity to rice) [5] | Herbicidal activity SM: Stellaria media [6] | Herbicidal activity SV: Setaria viridis [7] | Herbicidal activity CA: Chenopodium album [8] | Herbicidal activity DA: Digitaria adscendens [9] | Herbicidal activity (phytotoxicity) GM: Soybean (Glycine max) [10] | Herbicidal activity (phytotoxicity) TA: Wheat (Triticum aestivum) [11] | Herbicidal activity MV [12, 18] | Herbicidal activity EC [13, 18] | Herbicidal activity AM [14, 18] | Herbicidal activity SJ [15, 18] | Herbicidal activity (phytotoxicity) GM: Soybean (Glycine max) [16] | Herbicidal activity (phytotoxicity) TA: Wheat (Triticum aestivum) [17] | other results
CON=C(Cn1cc(C)c(-c2ccccc2)n1)C(=O)NC1CC1 [Compound 21, 2-methoxyimino-3-(phenyl-4-methyl-pyrazole)-1-yl-propanoic acid-N-cyclopropylamide] | 5 (herbicidal effect of not less than 90%, or phytotoxicity of 90% or more) | 5 (herbicidal effect of not less than 90%, or phytotoxicity of 90% or more) | 5 (herbicidal effect of not less than 90%, or phytotoxicity of 90% or more) | 5 (herbicidal effect of not less than 90%, or phytotoxicity of 90% or more) | 0 (herbicidal effect of not less than 0% and less than 10%, or phytotoxicity of 0% or more and less than 10%) | 5 (herbicidal effect of not less than 90%, or phytotoxicity of 90% or more) | 4 (herbicidal effect of not less than 70% and less than 90%, or phytotoxicity of 70% or more and less than 90%) | 5 (herbicidal effect of not less than 90%, or phytotoxicity of 90% or more) | 4 (herbicidal effect of not less than 70% and less than 90%, or phytotoxicity of 70% or more and less than 90%) | 0 (herbicidal effect of not less than 0% and less than 10%, or phytotoxicity of 0% or more and less than 10%) | 0 (herbicidal effect of not less than 0% and less than 10%, or phytotoxicity of 0% or more and less than 10%) | 5 (herbicidal effect of not less than 90%, or phytotoxicity of 90% or more) | 5 (herbicidal effect of not less than 90%, or phytotoxicity of 90% or more) | 5 (herbicidal effect of not less than 90%, or phytotoxicity of 90% or more) | 5 (herbicidal effect of not less than 90%, or phytotoxicity of 90% or more) | 0 (herbicidal effect of not less than 0% and less than 10%, or phytotoxicity of 0% or more and less than 10%) | 0 (herbicidal effect of not less than 0% and less than 10%, or phytotoxicity of 0% or more and less than 10%) | 
CNC(=O)C(Cn1cc(C)c(-c2ccc(F)c(OC)c2)n1)=NOC [Compound 77] | 3 (herbicidal effect of not less than 50% and less than 70%, or phytotoxicity of 50% or more and less than 70%) | 3 (herbicidal effect of not less than 50% and less than 70%, or phytotoxicity of 50% or more and less than 70%) | 5 (herbicidal effect of not less than 90%, or phytotoxicity of 90% or more) | 5 (herbicidal effect of not less than 90%, or phytotoxicity of 90% or more) |  | 5 (herbicidal effect of not less than 90%, or phytotoxicity of 90% or more) | 4 (herbicidal effect of not less than 70% and less than 90%, or phytotoxicity of 70% or more and less than 90%) | 5 (herbicidal effect of not less than 90%, or phytotoxicity of 90% or more) | 5 (herbicidal effect of not less than 90%, or phytotoxicity of 90% or more) | 0 (herbicidal effect of not less than 0% and less than 10%, or phytotoxicity of 0% or more and less than 10%) | 0 (herbicidal effect of not less than 0% and less than 10%, or phytotoxicity of 0% or more and less than 10%) |  |  |  |  | 0 (herbicidal effect of not less than 0% and less than 10%, or phytotoxicity of 0% or more and less than 10%) | 0 (herbicidal effect of not less than 0% and less than 10%, or phytotoxicity of 0% or more and less than 10%) | Herbicidal activity (phytotoxicity) OS ([5]; Table 6, paddy field treatment, transplanted rice, 21st day after dropping): 0 (herbicidal effect of not less than 0% and less than 10%, or phytotoxicity of 0% or more and less than 10%); Herbicidal activity MV [12, 19]: 5 (herbicidal effect of not less than 90%, or phytotoxicity of 90% or more); Herbicidal activity EC [13, 19]: 5 (herbicidal effect of not less than 90%, or phytotoxicity of 90% or more); Herbicidal activity AM [14, 19]: 5 (herbicidal effect of not less than 90%, or phytotoxicity of 90% or more); Herbicidal activity SJ [15, 19]: 5 (herbicidal effect of not less than 90%, or phytotoxicity of 90% or more)
CNC(=O)C(Cn1cc(C)c(-c2ccc(C)cc2)n1)=NOC [Compound 37] | 5 (herbicidal effect of not less than 90%, or phytotoxicity of 90% or more) | 5 (herbicidal effect of not less than 90%, or phytotoxicity of 90% or more) | 5 (herbicidal effect of not less than 90%, or phytotoxicity of 90% or more) | 5 (herbicidal effect of not less than 90%, or phytotoxicity of 90% or more) | 1 (herbicidal effect of not less than 10% and less than 30%, or phytotoxicity of 10% or more and less than 30%) | 5 (herbicidal effect of not less than 90%, or phytotoxicity of 90% or more) | 5 (herbicidal effect of not less than 90%, or phytotoxicity of 90% or more) | 5 (herbicidal effect of not less than 90%, or phytotoxicity of 90% or more) | 5 (herbicidal effect of not less than 90%, or phytotoxicity of 90% or more) | 0 (herbicidal effect of not less than 0% and less than 10%, or phytotoxicity of 0% or more and less than 10%) | 0 (herbicidal effect of not less than 0% and less than 10%, or phytotoxicity of 0% or more and less than 10%) | 5 (herbicidal effect of not less than 90%, or phytotoxicity of 90% or more) | 5 (herbicidal effect of not less than 90%, or phytotoxicity of 90% or more) | 5 (herbicidal effect of not less than 90%, or phytotoxicity of 90% or more) | 5 (herbicidal effect of not less than 90%, or phytotoxicity of 90% or more) | 0 (herbicidal effect of not less than 0% and less than 10%, or phytotoxicity of 0% or more and less than 10%) | 0 (herbicidal effect of not less than 0% and less than 10%, or phytotoxicity of 0% or more and less than 10%) | 
